# Reference: patent publication US20250205194A1, “COMPOSITION CONTAINING L-ASCORBIC ACID DL-a-TOCOPHEROL PHOSPHORIC ACID DIESTER ALKALI METAL SALT” (SUNSTAR INC., priority 2022, published 2025)
# Target: T1, MMP-8 (neutrophil collagenase) (Homo sapiens, UniProt P22894)
# T1 construct: purchased Enzo Life Sciences, Inc. BML-AK415-0001
# Test: MMP activity measurement test, MMP-8 fluorimetric drug discovery kit
# Assay type: biochemical
# Conditions: reaction with enzyme 37° C. 60 minutes, substrate 20 minutes; FIG. 4
# Description: (§1) Evaluation material solutions were prepared by individually adding each evaluation material at the respective concentrations shown in FIGS. 4 and 5 to a solvent in which 5% DMSO was added to the buffer included in each kit below. The evaluation materials used are EPC-K (L-ascorbic acid dl-α-tocopherol phosphoric acid diester potassium salt), VC (ascorbic acid), VEA (tocopherol acetate), and VEN (tocopherol nicotinate).
# (§2) MMP-8 (neutrophil collagenase) activity was evaluated using an MMP-8 fluorimetric drug discovery kit (Enzo Life Sciences, Inc., BML-AK415-0001), and MMP-1 (fibroblast collagenase) activity was evaluated using an MMP-1 fluorimetric drug discovery kit (Enzo Life Sciences, Inc., BML-AK405-0001), in the following manner. […]
# (§3) The fluorescent substrate included in each kit was diluted 10-fold using the buffer, and added in an amount of 10 μl to each solution after the reaction for 60 minutes. After the addition, a reaction was allowed to proceed at 37° C. for 20 minutes for MMP-8 or at 37° C. for 60 minutes for MMP-1, and the fluorescence intensity (excitation light: 328 nm; emission light: 420 nm) was measured. […] The concentration of each evaluation material in FIGS. 4 and 5 is the concentration at the time of preparing the evaluation material, and the final concentration (concentration at the time of measuring fluorescence intensity) is 1/5 of this concentration value.
# T1 sequence (P22894 100-262 limits assumed): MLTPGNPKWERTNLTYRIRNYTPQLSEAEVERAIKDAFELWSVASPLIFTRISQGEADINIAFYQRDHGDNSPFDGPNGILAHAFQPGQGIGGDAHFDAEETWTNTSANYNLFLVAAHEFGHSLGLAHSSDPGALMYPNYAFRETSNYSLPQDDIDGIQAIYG
row,Molecule,inhibition of MMP-8 activity
1,"Cc1c(C)c2c(c(C)c1OP(=O)([O-])OC1=C(O)C(C(O)CO)OC1=O)CCC(C)(CCCC(C)CCCC(C)CCCC(C)C)O2.[K+] (racemic) [EPC-K, L-ascorbic acid dl-α-tocopherol phosphoric acid diester potassium salt]",inhibited MMP activity (MMP-8 and MMP-1) in a concentration-dependent manner

# Target: T2, MMP-1 (fibroblast collagenase) (Homo sapiens, UniProt P03956)
# T2 construct: purchased Enzo Life Sciences, Inc. BML-AK405-0001
# T2 sequence (P03956 100-269 limits assumed): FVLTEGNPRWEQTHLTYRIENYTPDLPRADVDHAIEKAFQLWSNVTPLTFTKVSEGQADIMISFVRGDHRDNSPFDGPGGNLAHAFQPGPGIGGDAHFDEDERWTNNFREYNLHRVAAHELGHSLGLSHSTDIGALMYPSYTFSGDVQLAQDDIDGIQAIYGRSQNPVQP
# Test: MMP activity measurement test, MMP-1 fluorimetric drug discovery kit
# Assay type: biochemical
# Conditions: reaction with enzyme 37° C. 60 minutes, substrate 60 minutes; FIG. 5
# Description: as §1, §2, §3
row,Molecule,inhibition of MMP-1 activity
1,"Cc1c(C)c2c(c(C)c1OP(=O)([O-])OC1=C(O)C(C(O)CO)OC1=O)CCC(C)(CCCC(C)CCCC(C)CCCC(C)C)O2.[K+] (racemic) [EPC-K, L-ascorbic acid dl-α-tocopherol phosphoric acid diester potassium salt]",inhibited MMP activity (MMP-8 and MMP-1) in a concentration-dependent manner

# System: oral cavity-derived epithelial cell line (Ca9-22 cells)
# Test: Cytotoxicity evaluation test (WST-1)
# Assay type: cell-based
# Conditions: surfactant final concentration 1%, 10 minutes at room temperature, FIGS. 6 and 7
# Description: An oral cavity-derived epithelial cell line (Ca9-22 cells) was cultured in a 96-well plate to confluency.
# Evaluation solutions were prepared using PBS containing 0.5% DMSO as a solvent so that the final concentration of each surfactant was 1%. The surfactants used were polyoxyethylene (9) lauryl ether, polyoxyethylene (20) cetyl ether, polyoxyethylene (20) stearyl ether, polyoxyethylene (10) octylphenyl ether, polyoxyethylene glycol monolaurate, sorbeth-60 tetraoleate, diethyl sebacate, and polyoxyethylene (10) hydrogenated castor oil.
# 100 μl of each prepared evaluation solution was individually added to the cultured Ca9-22 cells and allowed to stand for 10 minutes at room temperature. After 10 minutes, washing was performed three times with 200 μl of PBS, a WST-1 reagent (Takara Bio Inc.) was added, and a reaction was allowed to proceed for 30 minutes. After the reaction, the absorbance at 450 nm and 600 nm was measured, and the absorbance at 600 nm was subtracted from the absorbance at 450 nm. The cell viability was calculated from the value calculated by the subtraction, based on the value obtained when only the solvent was added for the treatment taken as 100%. FIGS. 6 and 7 show the results.
row,Molecule,cytotoxicity in oral cavity-derived cells (cell viability)
1,polyoxyethylene (9) lauryl ether,cytotoxicity was caused
2,CCOC(=O)CCCCCCCCC(=O)OCC [diethyl sebacate],cytotoxicity was not caused
3,polyoxyethylene (20) stearyl ether,cytotoxicity was caused
4,polyoxyethylene (10) hydrogenated castor oil,cytotoxicity was not caused
5,polyoxyethylene (20) cetyl ether,cytotoxicity was caused
6,sorbeth-60 tetraoleate,cytotoxicity was not caused
7,polyoxyethylene (10) octylphenyl ether,cytotoxicity was caused
8,polyoxyethylene glycol monolaurate,cytotoxicity was caused
